Each structure is given as a SMILES string.

The assay in a line: Ability to inhibit Human cytomegalovirus (HCMV) protease activity.
Usually IC50 stands for the point on the concentration scale where inhibition reaches its midpoint. Regarding `CC(=O)C=CN1C(=O)[C@@H](C)C2[C@@H]1CCN2C(=O)OCc1ccccc1` (stereo partly drawn) [6-Methyl-5-oxo-4-(3-oxo-but-1-enyl)-hexahydro-pyrrolo[3,2-b]pyrrole-1-carboxylic acid benzyl ester], the IC50 was above 500 µM. The molecule `C[C@@H]1C(=O)N(c2ccc([N+](=O)[O-])cc2[N+](=O)[O-])[C@H]2CCN(C(=O)OCc3ccccc3)C12` (stereo partly drawn) [4-(2,4-Dinitro-phenyl)-6-methyl-5-oxo-hexahydro-pyrrolo[3,2-b]pyrrole-1-carboxylic acid benzyl ester] displayed an IC50 of 500 µM. As to `C[C@@H]1C(=O)N(C(=O)n2cccc2)[C@H]2CCN(C(=O)OCc3ccccc3)C12` (stereo partly drawn) [6-Methyl-5-oxo-4-(pyrrole-1-carbonyl)-hexahydro-pyrrolo[3,2-b]pyrrole-1-carboxylic acid benzyl ester], 250 µM corresponded to half-maximal inhibition (IC50).

The values above are taken from BindingDB's records for doi:10.1021/jm0102203 (Glaxosmithkline, 2001).
